How the values were obtained:
[1] = test system: triple culture of rat-derived astrocytes, pericytes and monkey-derived endothelial cells; experiment: Apparent BBB permeability coefficient, in vitro BBB model (BBB Kit); details: 100 μM on luminal (blood) side, 30 min, brain side measured at 230 nm
Method: (§1) The BBB Kit™ was kept at −80° C. until thawing on day 0 of the experiments. Nutritional medium was added to both brain and blood sides of the wells. This solution consists of DMEM F-12 medium with FCS 10% v/v, heparin 100 μg/ml, basic fibroblast growth factor (bFGF) 1.5 ng/ml, insulin 5 μg/ml, transferrin 5 μg/ml, sodium selenite 5 ng/ml, hydrocortisone 500 nM and gentamycin 50 μg/ml. Fresh medium was added 3 hours after thawing following the manufacturer's instructions, and 24 hours later. The plates were incubated at 37° C. until day 4 of the experiment when the condition of astrocytes was checked under a light microscope. Following this, the integrity of the collagen-coated membrane was verified by the measurement of the transendothelial electrical resistance (TEER) using an ohmmeter provided by the manufacturer. […] Detailed information regarding the components of the BBB Kit as well as its mechanisms can be seen by accessing the manufacturer's website http://www.pharmacocell.co.jp/en/bbb/index_e.html.
(§2) Standard curves were generated for each compound on a light spectrophotometer as previously described. 100 μM of each compound was added to the luminal (blood side) of the wells, incubated at 37° C. for 30 minutes and then, the amount of drug that crossed the in vitro BBB was collected and measured under a light spectrophotometer at 230 nanometer absorbances.
(§3) Papp was calculated using the following mathematical formula: […]
(§4) This model (BBB Kit™) is thought to represent an in vitro BBB model for drug transport assays, permitting an adequate cross-talk of the cell lines involved and provide a way to test an apparent passage of small molecules across the BBB as previously described by Nakagawa et al. (41). […] The concentrations of each compound that permeated into the abluminal interface (termed “brain side”) were determined using a spectrophotometer, 30 min after the addition of each drug to the wells.
(§5) The mathematical formula used for the calculation of Papp is described in Materials and Methods.

[2] = as above; details: rat and monkey
Method: as §1, §2, §3, §4, §5

HIV-1MDR/JSL = experiment: microbe, parasite or virus in culture; format: cell-based; details: Human immunodeficiency virus 1, read-out: EC50 HIV-1MDR/JSL (R5)
Method: (§6) All primary HIV-1 strains were passaged once or twice in 3-day-old phytohemagglutinin activated peripheral blood mononuclear cells (PHA-PBM), and the culture supernatants were stored at −80° C. until use.
(§7) The susceptibility of HIV-1LAI to various drugs was determined as previously described with minor modifications. Briefly, MT-2 cells (10^4/ml) were exposed to 100 50% tissue culture infectious doses (TCID50) of HIV-1LAI in the presence or absence of various concentrations of drugs in 96-well microculture plates and were incubated at 37° C. for 7 days. After 100 μl of the medium was removed from each well, 3-(4,5-dimetylthiazol-2-yl)-2,5-diphenyltetrazolium bromide (MTT) solution (10 μl, 7.5 mg/ml in phosphate-buffered saline) was added to each well in the plate, followed by incubation at 37° C. for 2 h. […] All assays were performed in duplicate or triplicate. […] To determine the sensitivity of primary HIV-1 isolates to drugs, phytohemagglutinin-stimulated peripheral blood mononuclear cells (PHA-PBMC) (10^6/ml) were exposed to 50 TCID50 of each primary HIV-1 isolate and cultured in the presence or absence of various concentrations of drugs in 10-fold serial dilutions in 96-well microculture plates. In determining the drug susceptibility of certain laboratory HIV-1 strains, MT-4 cells were employed as target cells as previously described with minor modifications. In brief, MT-4 cells (10^5/ml) were exposed to 100 TCID50 of drug-resistant HIV-1 strains in the presence or absence of various concentrations of drugs and were incubated at 37° C. On day 7 of culture, the supernatants were harvested and the amounts of p24 Gag protein were determined by using a fully automated chemiluminescent enzyme immunoassay system (Lumipulse F: Fujirebio Inc., Tokyo). […] All assays were performed in duplicate or triplicate. PHA-PBMs were derived from a single donor in each independent experiment. Thus, for obtaining the data, three different donors were recruited.

HIV-1NL4-3 = experiment: p24 Gag production inhibition in MT-4 cells, wild-type laboratory strain; format: cell-based; details: Human immunodeficiency virus 1, MT4; MT-4 cells, p24 Gag endpoint; read-out: EC50 HIV-1NL4-3
Method: as §7

HIV-1LPV^R5μM = experiment: microbe, parasite or virus in culture; format: cell-based; details: Human immunodeficiency virus 1, MT4, read-out: EC50 HIV-1LPV^R5μM
Method: as §7

[3] = Cytotoxicity (CC50), MTT assay; format: cell-based; details: human; 50% cytotoxicity; read-out: CC50
Method: The susceptibility of HIV-1LAI to various drugs was determined as previously described with minor modifications. Briefly, MT-2 cells (10^4/ml) were exposed to 100 50% tissue culture infectious doses (TCID50) of HIV-1LAI in the presence or absence of various concentrations of drugs in 96-well microculture plates and were incubated at 37° C. for 7 days. After 100 μl of the medium was removed from each well, 3-(4,5-dimetylthiazol-2-yl)-2,5-diphenyltetrazolium bromide (MTT) solution (10 μl, 7.5 mg/ml in phosphate-buffered saline) was added to each well in the plate, followed by incubation at 37° C. for 2 h. […] All assays were performed in duplicate or triplicate. […] In determining the drug susceptibility of certain laboratory HIV-1 strains, MT-4 cells were employed as target cells as previously described with minor modifications. In brief, MT-4 cells (10^5/ml) were exposed to 100 TCID50 of drug-resistant HIV-1 strains in the presence or absence of various concentrations of drugs and were incubated at 37° C. On day 7 of culture, the supernatants were harvested and the amounts of p24 Gag protein were determined by using a fully automated chemiluminescent enzyme immunoassay system (Lumipulse F: Fujirebio Inc., Tokyo). […] All assays were performed in duplicate or triplicate. PHA-PBMs were derived from a single donor in each independent experiment. Thus, for obtaining the data, three different donors were recruited.

HIV-1ERS104pre = experiment: p24 Gag production inhibition in PHA-PBMs, wild-type clinical isolate; format: cell-based; details: Human immunodeficiency virus 1; PHA-PBMs, p24 Gag endpoint; read-out: EC50 HIV-1ERS104pre (X4)
Method: as §6, §7

HIV-1LAI = experiment: Antiviral activity of brain-side medium from the BBB assay, MTT assay in MT-2 cells; format: cell-based; details: HIV-1LAI
Method: The “brain-side” of the medium containing a compound collected in the BBB in vitro assay, was subjected to antiviral assays. Two HIV-1 isolates were employed, HIV-1LAI (Panel A) and HIV-1ERS104pre (Panel B). […] Dilution ranges were between 10-fold and 10,000-fold, and the percentage of viral inhibition was used as an endpoint. […] Assays were conducted in duplicate and error bars show standard deviations.
The assay was carried out using 10, 100, 1000 and 10000 times-diluted brain-side stocks of compounds.

HIV-1GRL04810^RP18 = experiment: microbe, parasite or virus in culture; format: cell-based; details: Human immunodeficiency virus 1, MT4, read-out: EC50 HIV-1GRL04810^RP18
Method: as §7
(§8) The amounts of p24 were measured every two days for up to 7 days.

HIV-1GRL05010^RP10 = experiment: microbe, parasite or virus in culture; format: cell-based; details: Human immunodeficiency virus 1, MT4, read-out: EC50 HIV-1GRL05010^RP10
Method: as §7, §8

HIV-1MDR/G = experiment: microbe, parasite or virus in culture; format: cell-based; details: Human immunodeficiency virus 1, read-out: EC50 HIV-1MDR/G (X4)
Method: as §6, §7

HIV-1MDR/MM = experiment: microbe, parasite or virus in culture; format: cell-based; details: Human immunodeficiency virus 1, read-out: EC50 HIV-1MDR/MM (R5)
Method: as §6, §7

HIV-1MDR/B = experiment: microbe, parasite or virus in culture; format: cell-based; details: Human immunodeficiency virus 1, read-out: EC50 HIV-1MDR/B (X4)
Method: as §6, §7

HIV-1MDR/TM = experiment: microbe, parasite or virus in culture; format: cell-based; details: Human immunodeficiency virus 1, read-out: EC50 HIV-1MDR/TM (X4)
Method: as §6, §7

HIV-1MDR/C = experiment: microbe, parasite or virus in culture; format: cell-based; details: Human immunodeficiency virus 1, read-out: EC50 HIV-1MDR/C (X4)
Method: as §6, §7

[4] = test system: HIV-1GRL-04810^RP18, and HIV-1GRL-05010^RP10; experiment: p24 assay, the two GRL-selected variants taken together; format: cell-based; details: Human immunodeficiency virus 1, read-out: EC50 values against HIV-1GRL-04810^RP18 and HIV-1GRL-05010^RP10
Method: as §7

HIV-1SQV^R5μM = experiment: microbe, parasite or virus in culture; format: cell-based; details: Human immunodeficiency virus 1, MT4, read-out: EC50 HIV-1SQV^R5μM
Method: as §7

HIV-1ATV^R5μM = experiment: microbe, parasite or virus in culture; format: cell-based; details: Human immunodeficiency virus 1, MT4, read-out: EC50 HIV-1ATV^R5μM
Method: as §7

HIV-1APV^R5μM = experiment: microbe, parasite or virus in culture; format: cell-based; details: Human immunodeficiency virus 1, MT4, read-out: EC50 HIV-1APV^R5μM
Method: as §7

With Cn1c(=O)c2c(ncn2C)n(C)c1=O [caffeine] the “Final abluminal tracer concentration” value [1] was 6.60 µM and the Papp at 30 min, 100 μM [2] was 100 ×10⁻⁶ cm/s.

Cc1cccc(C)c1OCC(=O)N[C@@H](Cc1ccccc1)[C@@H](O)C[C@H](Cc1ccccc1)NC(=O)[C@H](C(C)C)N1CCCNC1=O [LPV, Lopinavir] gave an EC50 (HIV-1MDR/JSL) greater than 1000 nM, an EC50 (HIV-1NL4-3) of 35 nM and an EC50 (HIV-1LPV^R5μM) greater than 1000 nM. For the same molecule, the CC50 at 7 days [3] was 26800 ± 900 nM and the EC50 (HIV-1ERS104pre) was 33 nM.

For CC(C)(C)NC(=O)[C@@H]1CN(Cc2cccnc2)CCN1C[C@@H](O)C[C@@H](Cc1ccccc1)C(=O)N[C@H]1c2ccccc2C[C@H]1O [IDV, Indinavir], the “suppression levels of brain-side preparations compared (FIG. 5A)” value (HIV-1LAI) was “less than those of GRL-04810^brain and GRL-05010^brain”.

Work on CC(C)CN(C[C@@H](O)[C@H](Cc1ccccc1)NC(=O)O[C@H]1CCOC1)S(=O)(=O)c1ccc(N)cc1 [APV, Amprenavir] yielded an EC50 (HIV-1GRL04810^RP18) greater than 1000 nM, an EC50 (HIV-1GRL05010^RP10) greater than 1000 nM and an EC50 (HIV-1MDR/G) of 310 nM. For the same molecule, the EC50 (HIV-1MDR/MM) was 270 nM, the EC50 (HIV-1MDR/JSL) was 630 nM and the EC50 (HIV-1MDR/B) was 490 nM. For the same molecule, the EC50 (HIV-1MDR/TM) was 328 nM, the EC50 (HIV-1MDR/C) was 210 nM and the EC50 (HIV-1NL4-3) was 81 nM. For the same molecule, the EC50 [4] was greater than 1000 nM, the EC50 (HIV-1LPV^R5μM) was 33 nM and the EC50 (HIV-1SQV^R5μM) was 435 nM. It also gave an EC50 (HIV-1ATV^R5μM) greater than 1000 nM, an EC50 (HIV-1APV^R5μM) greater than 1000 nM and a CC50 at 7 days [3] greater than 100000 nM. The EC50 (HIV-1ERS104pre) was 29.5 nM.
